For orientation: pIC50 means the negative decadic logarithm of the IC50, by convention in mol/L. A lower pIC50 goes with a large IC50.

Each structure is given as a SMILES string. pIC50: −log10 of the molar value. Bounds are passed on as bounds.

The subject of assay [1] is human platelet-rich plasma (PRP). Nature of the assay: PRP assay: inhibition of ADP-mediated platelet aggregation in vitro. In kind it is cell-based. The settings on record: Homo sapiens, Platelet, ADP-induced aggregation. How it is done:
The effect of testing the compound according to the invention on ADP-induced human platelet aggregation was assessed in a 96-well microtiter assay (see generally the procedures in Jantzen, H. M. et al. (1999) Thromb. Hemost. 81:111-117) or standard cuvette light transmittance aggregometry using either human platelet-rich plasma (PRP) or human washed platelets.
For preparation of human platelet-rich plasma for aggregation assays, human venous blood was collected from healthy, drug-free volunteers into 0.38% sodium citrate (0.013 M, pH 7.0 final). Platelet-rich plasma (PRP) is prepared by centrifugation of whole blood at 160×g for 20 minutes at room temperature. The PRP layer is removed, transferred to a new tube, and the platelet count is adjusted, if necessary, to achieve a platelet concentration of ˜3×10^8 platelets/ml using platelet-poor plasma (PPP). PPP is prepared by centrifugation of the remaining blood sample (after removal of PRP) for 20 minutes at 800×g. This preparation of PRP can subsequently be used for aggregation assays in either a 96-well plate or standard cuvette aggregometry.
For cuvette light transmittance aggregation assays, serial dilutions (1:3) of test compounds were prepared in 100% DMSO in a 96 well V-bottom plate (final DMSO concentration in the cuvette was 0.6%). The test compound (3 μl of serial dilutions in DMSO) was preincubated with PRP for 30-45 seconds prior to initiation of aggregation reactions, which were performed in a ChronoLog aggregometer by addition of agonist (5 or 10 μM ADP) to 490 μL of PRP at 37° C. In some cases, light transmittance aggregometry was performed using 490 μL of washed platelets (prepared as described above) at 37° C., and aggregation was initiated by addition of 5 μM ADP and 0.5 mg/ml human fibrinogen (American Diagnostics, Inc., Greenwich, Conn.). The aggregation reaction is recorded for ˜5 min, and maximum extent of aggregation is determined by the difference in extent of aggregation at baseline, compared to the maximum aggregation that occurs during the five minute period of the assay. Inhibition of aggregation was calculated as the maximum aggregation observed in the presence of inhibitor, compared to that in the absence of inhibitor. IC50s were derived by non-linear regression analysis using the Prism software (GraphPad, San Diego, Calif.).
Inhibition of ADP-dependent aggregation was also determined in 96-well flat-bottom microtiter plates using a microtiter plate shaker and plate reader similar to the procedure described by Frantantoni et al., Am. J. Clin. Pathol. 94, 613 (1990). All steps are performed at room temperature. For 96-well plate aggregation using platelet-rich plasma (PRP), the total reaction volume of 0.2 ml/well includes 180 μl of PRP (˜3×10^8 platelets/ml, see above), 6 μl of either serial dilution of test compounds in 20% DMSO or buffer (for control wells), and 10 μl of 20×ADP agonist solution (100 μM). The OD of the samples is then determined at 450 nm using a microtiter plate reader (Softmax, Molecular Devices, Menlo Park, Calif.) resulting in the 0 minute reading. The plates are then agitated for 5 min on a microtiter plate shaker and the 5 minute reading is obtained in the plate reader. Aggregation is calculated from the decrease of OD at 450 nm at t=5 minutes compared to t=0 minutes and is expressed as % of the decrease in the ADP control samples after correcting for changes in the unaggregated control samples. IC50s were derived by non-linear regression analysis.

The target in the next assay is T1, P2Y12 receptor (Homo sapiens, UniProt Q9H244).
T1 construct: endogenous in cells; host or cells: human platelets (outdated from blood banks or fresh), apyrase-washed, whole
Nature of the assay: platelet ADP receptor binding assay (ARB): inhibition of [3H]2-MeS-ADP binding to platelets. The settings on record: [3H]2-MeS-ADP binding to apyrase-washed human platelets. The procedure, abridged: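 Apyrase-washed human platelets (1×10^8 per well) were preincubated 5 min with serial compound dilutions in Hepes-Tyrode's/0.1% BSA/0.6% DMSO, then incubated 15 min at room temperature with 1 nM [3H]2-MeS-ADP. Filter-bound radioactivity gave specific binding (nonspecific: 10 μM 2-MeS-ADP), and IC50s came from non-linear regression.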

T1 sequence (Q9H244 whole entry): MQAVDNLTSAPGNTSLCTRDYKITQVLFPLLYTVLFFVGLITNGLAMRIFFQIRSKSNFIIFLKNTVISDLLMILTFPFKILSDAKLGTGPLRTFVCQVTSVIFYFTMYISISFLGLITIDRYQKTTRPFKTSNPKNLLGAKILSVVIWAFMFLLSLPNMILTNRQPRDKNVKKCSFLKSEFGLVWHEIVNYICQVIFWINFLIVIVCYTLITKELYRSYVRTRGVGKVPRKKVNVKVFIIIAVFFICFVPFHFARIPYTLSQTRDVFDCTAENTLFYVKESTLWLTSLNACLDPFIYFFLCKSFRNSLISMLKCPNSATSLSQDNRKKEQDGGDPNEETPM

For the compound `CNc1cc2c(cc1F)C(=O)N(c1ccc(C(=O)NC(c3cccc(Cl)c3)c3nnn[nH]3)cc1)CO2` (centres unmarked) [Compound 80, N-((3-chlorophenyl)(1H-tetrazol-5-yl)methyl)-4-(6-fluoro-7-(methylamino)-4-oxo-2H-benzo[e][1,3]oxazin-3(4H)-yl)benzamide], the pIC50 in assay [1] is less than 4.52; at P2Y12 receptor, 6.30 to 7.30.

`CNc1cc2ccn(-c3ccc(CNC(C(=O)O)c4ccc(Cl)s4)cc3)c(=O)c2cc1F` (centres unmarked) [Compound 115, 2-(5-chlorothiophen-2-yl)-2-(4-(7-fluoro-6-(methylamino)-1-oxoisoquinolin-2(1H)-yl)benzylamino)acetic acid]: the pIC50 in assay [1] was less than 4.52; at P2Y12 receptor, 6.30 to 7.30.

Turning to `CNc1cc2c(cc1F)C(=O)N(c1ccc(C(=O)NC(CC(=O)O)c3ccc(Cl)s3)cc1)CO2` (centres unmarked) [Compound 79, 3-(5-chlorothiophen-2-yl)-3-(4-(6-fluoro-7-(methylamino)-4-oxo-2H-benzo[e][1,3]oxazin-3(4H)-yl)benzamido)propanoic acid], the pIC50 is more than 5.00 in assay [1] and 6.30 to 7.30 at P2Y12 receptor.

With `CNc1cc2c(cc1F)C(=O)N(c1ccc(C(=O)NC(C(N)=O)c3ccc(Cl)s3)cc1)CO2` (centres unmarked) [Compound 70], the pIC50 in assay [1] was 4.52 to 5.00; at P2Y12 receptor it was 6.30 to 7.30.

`CNc1cc2c(cc1F)C(=O)N(c1ccc(CNC(CC(=O)O)c3ccc(Cl)s3)cc1)CO2` (centres unmarked) [Compound 106, 3-(5-chlorothiophen-2-yl)-3-(4-(6-fluoro-7-(methylamino)-4-oxo-2H-benzo[e][1,3]oxazin-3(4H)-yl)benzylamino)propanoic acid]: the pIC50 was less than 4.52 in assay [1] and 6.30 to 7.30 on P2Y12 receptor.

Consider `CNc1cc2c(cc1F)C(=O)N(c1ccc(CNC(C(=O)O)c3ccc(Cl)s3)cc1)CO2` (centres unmarked) [Compound 105, 2-(5-chlorothiophen-2-yl)-2-(4-(6-fluoro-7-(methylamino)-4-oxo-2H-benzo[e][1,3]oxazin-3(4H)-yl)benzylamino)acetic acid], for which the pIC50 in assay [1] was less than 4.52; at P2Y12 receptor it was 6.30 to 7.30.

Turning to `CNc1cc2[nH]c(=O)n(-c3ccc(C(=O)NC(c4nnn[nH]4)c4ccc(Cl)s4)cc3)c(=O)c2cc1F` (centres unmarked) [Compound 7, N-((5-chlorothiophen-2-yl)(1H-tetrazol-5yl)methyl)-4-(6-fluoro-7-(methylamino)-2,4-dioxo-1,2-dihydroquinazolin-3(4H)-yl)benzamide], the pIC50 in assay [1] was more than 5.00; on P2Y12 receptor it was more than 7.30.

Turning to `CNc1cc2[nH]c(=O)n(-c3ccc(C(=O)N[C@@H](c4noc(=O)[nH]4)c4ccc(Cl)s4)cc3)c(=O)c2cc1F` [Compound 45, (S)-N-((5-chlorothiophen-2-yl)(5-oxo-4,5-dihydro-1,2,4-oxadiazol-3-yl)methyl)-4-(6-fluoro-7-(methylamino)-2,4-dioxo-1,2-dihydroquinazolin-3(4H)-yl)benzamide], the pIC50 in assay [1] is more than 5.00; at P2Y12 receptor, more than 7.30.

As for `CNc1cc2[nH]c(=O)n(-c3ccc(C(=O)NC(C(=O)O)c4ccc(C)s4)cc3)c(=O)c2cc1F` (centres unmarked) [Compound 19, 2-(4-(6-fluoro-7-(methylamino)-2,4-dioxo-1,2-dihydroquinazolin-3(4H)-yl)benzamido)-2-(5-methylthiophen-2-yl)acetic acid], the pIC50 in assay [1] was more than 5.00; on P2Y12 receptor it was 6.30 to 7.30.

Take `CNc1cc2ccn(-c3ccc(C(=O)NC(C(=O)O)c4ccc(Cl)s4)cc3)c(=O)c2cc1F` (centres unmarked) [Compound 90, 2-(5-chlorothiophen-2-yl)-2-(4-(7-fluoro-6-(methylamino)-1-oxoisoquinolin-2(1H)-yl)benzamido)acetic acid]: the pIC50 in assay [1] was 4.52 to 5.00; on P2Y12 receptor it was more than 7.30.

For the origin of these results see patent publication US7834023B2 (Portola Pharmaceuticals, Inc., priority 2006, dated 2010).
